Two molecules from ChEMBL document CHEMBL1157741, “Synthesis and antituberculosis activity of novel mefloquine-isoxazole carboxylic esters as prodrugs” (Bioorg Med Chem Lett, 2010) can be followed below.

A value given as a limit tells only on which side of the number the result lay.

In this experiment the test system is Mycobacterium tuberculosis. The experiment is described as follows: Antimicrobial activity against Mycobacterium bovis BCG. It is filed as functional. As to conditions: variant bovis BCG.

On to `CCOC(=O)c1cc(COc2cc(C(F)(F)F)nc3c(C(F)(F)F)cccc23)on1`, for which the MIC was less than 0.5 µM.
`O=C(O)c1cc(COc2cc(C(F)(F)F)nc3c(C(F)(F)F)cccc23)on1` gave an MIC greater than 128 µM.
